In brackets after ≈: the same amount, converted by molar mass. Like-named read-outs stand apart in the source and are kept apart here.
Columns and labels:
[1] = system: Trypanosoma cruzi; assay: Light-activated killing of parasites (MTT IC50); format: cell-based
Experimental: Trypanosomes were cultured in LIT media+10% FBS. The compounds were added to create a dilution series and incubated with the trypanosomes for 1 hour. The trypanosomes were then irradiated with continuous white light for 2 minutes at a distance of 6.5 cm using a LumaCare™ light source.

[2] = system: A. baumannii; assay: Treatment with compound 1 and PMB at fixed concentrations, with and without white light; format: cell-based
Excerpt: FIG. 53 is an example of the treatment of A. baumannii with compound 1 and PMB at fixed concentrations with and without irradiation using white light (λ).

[3] = system: E. coli; assay: MIC against E. coli; format: cell-based; settings: Escherichia coli
Excerpt: TABLE 18 details the obtained MIC values for cells treated with compound 1, light, PMB, and Polymyxin E (PME) against E. coli.

[4] = system: S. mutans Ward's 85W 2357; assay: Resensitization to antibiotics (log reduction, TABLE 29); format: cell-based; settings: compound 1 μM; Light (2 min)
[5] = system: MRSA (ATCC No. BAA-44; ATCC No. BAA-1717); assay: Light-activated killing (photodynamic therapy), colony counts; format: cell-based, S. aureus; settings: for Light Toxicity: white light 2 minutes; for log reduction in the concentration of CFUs: MRSA, FIG. 7; for appearance of MRSA cells in SEM image: FIG. 4
Experimental: (§1) Bacterial media was inoculated with bacteria and incubated overnight. The bacterial cultures were diluted to 5×10^8 CFU/mL using a McFarland latex turbidity standard (0.5). Compound 1 was diluted with sterile DMSO, which was added to the cell suspension in a glass culture tube. The cells were then incubated for 30 minutes at 37° C. on a rotary shaking incubator at 150 rpm. 500 μL of the treated cell suspension was added to a well on a sterile ceramic drop plate. Non-coherent white light from a Lumacare™ LC-122 unit was used to irradiate the samples. The end of the light probe was placed 3 cm above the sample well, perpendicular to the surface of the sample, and light was applied for 2 minutes (15 seconds light, 15 seconds dark). 200 μL of the irradiated sample was transferred to a 96-well plastic microtiter plate, and five ten-fold dilutions were made in the media. 10 μL of each dilution was dripped onto an agar media plate and streaked down the plate by tilting the plate down. The agar plates were incubated at 37° C. overnight, and colony counts were performed to calculate the CFU/mL.
(§2) Dose-dependent effects of treating bacteria with compound 1 and irradiation with white light were assessed by treating 10^8 CFU/mL of cells with compound 1, followed by irradiation with white light for 2 minutes. Compound 1 was added at a specific concentration to 1 mL of a 10^8 CFU/mL suspension of the respective bacterial cells, and the cells were incubated at 37° C. for approximately 45 minutes on a rotary shaker at 150 rpm. 0.5 mL of the cell suspension was removed and placed into the wells of a sterile ceramic drop plate, and then the cells were irradiated with white light from a Lumacare™ LC 122A light source for 2 minutes at a distance of approximately 3 cm. The time and distance of the light application delivered about 85 J/cm^2 of 400-700 nm light to the sample. After being irradiated, ten-fold dilutions were made of each cell sample. The dilutions were drip-streaked onto a tryptic soy agar (TSA) plate and incubated at 37° C. for 18-24 hours. Enumeration of bacteria was determined from the dilution, which produced a drip-streak containing approximately 30-300 colonies. After counting the colonies, the CFU/mL was calculated by applying the respective dilution factor and a factor of 100 to account for the 10 μL of sample taken. Appropriate controls were prepared, including cells with no treatment, cells with only compound 1 added, and cells only treated with light.

[6] = system: VRE (ATCC No. 51299); assay: Light-activated killing, colony counts; format: cell-based, Enterococcus faecalis; settings: for Dark Toxicity: no light; for Light Toxicity: white light 2 minutes
Experimental: as §2
The error bars in FIG. 11 represent the variations between three replicate determinations.

[7] = system: S. mutans (Ward's 85W 2357); assay: Light-activated killing, colony counts; format: cell-based; settings: for Dark Toxicity: no light; for Light Toxicity: white light 2 minutes
Experimental: as §2
(§3) The error bars in FIG. 13 represent the variations between three replicate determinations.

[8] = system: S. pyogenes ATCC 8133; assay: Resensitization to antibiotics (log reduction, TABLE 29); format: cell-based; settings: compound 1 μM; Light (2 min)
[9] = system: S. mutans (Ward's 85W 2357); assay: MIC against S. mutans; format: cell-based; settings: Streptococcus mutans; compound alone
Excerpt: as §3

[10] = system: MRSA; assay: Minimum bactericidal concentration (MBC) with and without white light; format: cell-based, S. aureus; settings: Staphylococcus aureus, light or radiation study
Experimental: as §1, with “The bacterial” for “Bacterial”, “in” for “in a”, “tubes.” for “tube.”, “plate” for “plate,”, “was allowed to streak” for “streaked”, “overnight” for “overnight,”
TABLE 14 details the MBC values of compounds 1-6 against MRSA with and without irradiation with white light. Irradiation involved treatment with a LumaCare™ light source at 3 cm from media for 1 min.

[11] = system: S. aureus (ATCC No. 29213); assay: Light-activated killing, colony counts; format: cell-based; settings: for Dark Toxicity: no light; for Light Toxicity: white light 2 minutes
Experimental: as §2
The error bars in FIG. 10 represent the variations between three replicate determinations.

## Clc1ccc(/C=C/c2[nH]c3ccccc3c2/C=C/c2ccc(Cl)cc2)cc1 [Compound 1]
[1]; continuous white light 2 minutes, MTT 24 hours later, read-out: Compound + light IC50
  IC50: < 0.5 µM
[1]; no light, read-out: IC50
  IC50: > 100 µM
[2]; FIG. 53
  cell killing with compound 1, PMB and white light: PMB was more efficacious in cell killing when co-administered with compound 1 and light
[2]; compared to either agent alone, FIG. 16
  killing by combination of compound 1 and PMB (CFU): effective at killing A. baumannii
[3]
  MIC: > 200 µg/mL
[4]
  Log Reduction: 5-6
[5]; MRSA ATCC BAA-44, 0.1 μM, no light
  Dark Toxicity: 2.85 × 10^8 ± 8.05 × 10^7 CFU/mL
[5]; MRSA ATCC BAA-44, 0.1 μM
  Light Toxicity: 2.00 × 10^3 ± 4.00 × 10^2 CFU/mL
[5]; MRSA ATCC BAA-44, 0.5 μM, no light
  Dark Toxicity: 2.93 × 10^8 ± 2.14 × 10^7 CFU/mL
[5]; MRSA ATCC BAA-44, 0.5 μM
  Light Toxicity: 3.33 × 10^1 ± 5.77 × 10^1 CFU/mL
[5]; MRSA ATCC BAA-44, 1.0 μM, no light
  Dark Toxicity: 1.05 × 10^8 ± 9.07 × 10^6 CFU/mL
[5]; MRSA ATCC BAA-44, 1.0 μM
  Light Toxicity: None detected (<100 CFU/mL)
[5]; MRSA ATCC BAA-44, 5.1 μM, no light
  Dark Toxicity: 4.34 × 10^5 ± 5.04 × 10^5 CFU/mL
[5]; MRSA ATCC BAA-44, 5.1 μM
  Light Toxicity: None detected (<100 CFU/mL)
[5]; MRSA ATCC BAA-1717, 0.1 μM, no light
  Dark Toxicity: 5.10 × 10^7 ± 5.29 × 10^6 CFU/mL
[5]; MRSA ATCC BAA-1717, 0.1 μM
  Light Toxicity: 4.43 × 10^3 ± 1.33 × 10^3 CFU/mL
[5]; MRSA ATCC BAA-1717, 0.5 μM, no light
  Dark Toxicity: 4.03 × 10^6 ± 1.5 × 10^6 CFU/mL
[5]; MRSA ATCC BAA-1717, 0.5 μM
  Light Toxicity: 4.0 × 10^2 ± 3.61 × 10^2 CFU/mL
[5]; MRSA ATCC BAA-1717, 1.0 μM, no light
  Dark Toxicity: 1.06 × 10^6 ± 8.39 × 10^4 CFU/mL
[5]; MRSA ATCC BAA-1717, 1.0 μM
  Light Toxicity: None detected (<100 CFU/mL)
[5]; MRSA ATCC BAA-1717, 5.1 μM, no light
  Dark Toxicity: 7.53 × 10^5 ± 1.12 × 10^5 CFU/mL
[5]; MRSA ATCC BAA-1717, 5.1 μM
  Light Toxicity: None detected (<100 CFU/mL)
[5]; 1 μM
  log reduction in the concentration of CFUs: 1 log
[5]; 5 μM
  log reduction in the concentration of CFUs: 3 log
[5]; TABLE 6
  PDT: <1-log reduction
[5]; from 100,000,000 viable MRSA cells, 2 minutes of white light irradiation
  viable MRSA cells after photodynamic therapy: 0
[6]; 0.1 μM
  Dark Toxicity: 6.50 × 10^8 ± 5.40 × 10^8 CFU/mL
  Light Toxicity: 7.00 × 10^2 ± 8.19 × 10^2 CFU/mL
[6]; 0.5 μM
  Dark Toxicity: 6.50 × 10^8 ± 1.32 × 10^8 CFU/mL
  Light Toxicity: 2.67 × 10^2 ± 4.62 × 10^2 CFU/mL
[6]; 1.0 μM
  Dark Toxicity: 6.20 × 10^8 ± 2.62 × 10^8 CFU/mL
  Light Toxicity: None detected (<100 CFU/mL)
[6]; 5.0 μM
  Dark Toxicity: 4.55 × 10^5 ± 8.87 × 10^5 CFU/mL
  Light Toxicity: None detected (<100 CFU/mL)
[7]; 0.1 μM
  Dark Toxicity: 2.6 × 10^8 ± 5.57 × 10^7 CFU/mL
  Light Toxicity: 2.35 × 10^5 ± 3.50 × 10^5 CFU/mL
[7]; 0.5 μM
  Dark Toxicity: 1.44 × 10^8 ± 4.46 × 10^7 CFU/mL
  Light Toxicity: 2.33 × 10^3 ± 1.54 × 10^3 CFU/mL
[7]; 1.0 μM
  Dark Toxicity: 2.1 × 10^5 ± 1.13 × 10^5 CFU/mL
  Light Toxicity: None Detected (<100 CFU/mL)
[7]; 5.0 μM
  Dark Toxicity: 5.5 × 10^4 ± 2.48 × 10^4 CFU/mL
  Light Toxicity: None Detected (<100 CFU/mL)
[8]
  Log Reduction: 6-7
[9]
  MIC: 50 to 100 µM (≈ 19.5 to 39 µg/mL)
[10]; 1 min, LumaCare light source at 3 cm from media for 1 min, read-out: MBC with irradiation
  MBC: 1 µM (≈ 0.39 µg/mL)
[10]; no irradiation, read-out: MBC in the dark
  MBC: 200 µM (≈ 78.1 µg/mL)
[11]; 0.1 μM
  Dark Toxicity: 1.63 × 10^8 ± 1.72 × 10^7 CFU/mL
  Light Toxicity: 1.20 × 10^5 ± 5.12 × 10^4 CFU/mL
[11]; 0.5 μM
  Dark Toxicity: 2.67 × 10^6 ± 2.10 × 10^6 CFU/mL
  Light Toxicity: 1.60 × 10^3 ± 1.44 × 10^3 CFU/mL
[11]; 1.0 μM
  Dark Toxicity: 1.34 × 10^6 ± 3.04 × 10^5 CFU/mL
  Light Toxicity: None detected (<100 CFU/mL)
[11]; 5.1 μM
  Dark Toxicity: 7.13 × 10^4 ± 1.80 × 10^4 CFU/mL
  Light Toxicity: None detected (<100 CFU/mL)

## Clc1ccc(/N=N/c2c[nH]c3ccccc23)cc1 [Compound 9]
[5]; compound 9 alone, no light
  appearance of MRSA cells in SEM image: undamaged
[5]; compound 9 at 25 uM and light (LumaCare)
  appearance of MRSA cells in SEM image: appear to have burst from the inside

— US9834514B2, “Antibiotic sensitivity-restoring and photosensitive agents” (New Mexico Tech Research Foundation, priority 2015, dated 2017)
